Assay results taken from US6168809A, “Alkaline-earth metal salt for the treatment of ocular or palpebral pruritus and dysesthesia” (Societe l'Oreal S.A., priority 1995, dated 2001).

How the values were obtained:
release of substance P = release of substance P caused by antidromic stimulation of the sciatic nerve, visualized by Evans blue staining; assay type: in vivo
Description: The test consisted in determining the activity of various compounds on the release of substance P, which is caused by antidromic stimulation of the sciatic nerve. This release is visualized by staining with a stain (Evans blue). The greater the quantity of substance P released, the more intense the colour. In other words, the greater the inhibitory effect of the substance P antagonist on this release, the less intense the colour.

[1] = test system: TNF-alpha secretion by human monocytes (line U937); test: inhibition of secretion of TNF-alpha induced by PMA in human monocytes (line U937); assay type: cell-based; details: for % inhibition of secretion of TNF-alpha induced by PMA: PMA 10 nM, 48 hours, 37° C., mean of 3 measurements; for inhibition of TNF-alpha: in words
Procedure: This test is performed on human monocytes (line U937) stimulated by a phorbol ester (PMA) according to the method described by Schindler et al. (Correlations and interactions in the production of interleukin-6 (IL-6), IL-1, and Tumor Necrosis Factor (TNF) in human blood mononuclear cells: IL-6 suppresses IL-1 and TNF. Blood 75: 40-47 (1990)).
The phorbol ester (PMA) naturally stimulates the synthesis and/or the secretion of TNF-alpha by human monocytes in culture.
The activity of the molecules is evaluated according to their capacity to reduce or even suppress this TNF-alpha secretion.
The cells (monocytes) are incubated in the presence of PMA at the concentration of 10 nM for 48 hours at 37° C. The quantities of TNF-alpha secreted are quantified by immunoenzymatic assay (ECA) with the aid of commercially available kits.
Each molecule is tested at 3 different concentrations (10^-5, 10^-4 and 10^-3 M) and in each experiment, a reference molecule (dexamethasone) is studied at 7 concentrations as internal standard.
The results are expressed as percentage of inhibition relative to the positive control (without test molecule) after subtracting the background noise. A recapitulative table groups together the mean inhibitory effects obtained with the compounds. (The results are expressed as % inhibition; they are the mean of 3 measurements).

| Compound | % inhibition relative to the control (release of substance P; Table 2, 3 μmol) [%] | % inhibition of secretion of TNF-alpha induced by PMA ([1]; 10^-3 M) [%] | % inhibition of secretion of TNF-alpha induced by PMA ([1]; 10^-4 M) [%] | inhibition of TNF-alpha [1] | % inhibition of secretion of TNF-alpha induced by PMA ([1]; 10^-5 M) [%] | inhibitory activity on the release of substance P (release of substance P; Table 1, in words, salts at the same concentration) | inhibitory activity on the release of substance P (release of substance P; Table 2, in words, calcium salt at a higher concentration level) |
| --- | --- | --- | --- | --- | --- | --- | --- |
| O=[N+]([O-])[O-].O=[N+]([O-])[O-].[Sr+2] [Sr(NO3)2, strontium nitrate] | 71 | 75 | 28 | inhibitors of TNF-alpha | – | – | – |
| [Ca+2].[Cl-].[Cl-] [CaCL2.7H2 O, calcium chloride] | – | 67 | 22 | inhibitors of TNF-alpha | 19 | – | – |
| O=[N+]([O-])[O-].O=[N+]([O-])[O-].[Ca+2] [Ca(NO3)2, calcium nitrate] | – | – | – | – | – | no activity at all | no activity at all |
| [Cl-].[Cl-].[Mg+2] [Mg Cl2, magnesium chloride] | – | 70 | 12 | inhibitors of TNF-alpha | – | – | – |
| [Cl-].[Cl-].[Sr+2] [SrCl2, strontium chloride] | – | – | – | inhibitors of TNF-alpha | – | – | – |
| O.O.O.O.O.O.O.[Cl-].[Cl-].[Sr+2] [SrCl2 7H2O] | – | 54 | – | – | 14 | – | – |
